According to ChEMBL document CHEMBL4043147, “9,19-Cycloartenol glycoside G3 from Cimicifuga simplex regulates immune responses by modulating Th17/Treg ratio” (Bioorg Med Chem, 2017):
pIC50: −log10 of the molar value. The source made the active and inactive calls. No cut-off for these calls is given here.

Assays:
Splenocyte = experiment: Cytotoxicity against mouse splenocytes after 48 hrs by MTT assay; format: cell-based
[1] = Inhibition of C57BL/6 mouse CD4-positive T cell differentiation at 50 uM relative to control; format: functional; details: C57BL/6, CD4-positive T cell
[2] = Inhibition of C57BL/6 mouse CD4-positive T cell differentiation at 25 uM relative to control; format: functional; details: C57BL/6, CD4-positive T cell
[3] = Inhibition of C57BL/6 mouse CD4-positive T cell differentiation at 12.5 uM relative to control; format: functional; details: C57BL/6, CD4-positive T cell
[4] = Inhibition of C57BL/6 mouse CD4-positive T cell differentiation at 6.25 uM relative to control; format: functional; details: C57BL/6, CD4-positive T cell
[5] = Inhibition of C57BL/6 mouse CD4-positive T cell differentiation; format: functional, cell-based; details: C57BL/6, CD4-positive T cell
CD4-positive T cell [6] = experiment: Inhibition of C57BL/6 mouse CD4-positive T cell differentiation assessed as decrease in RORgammat mRNA level 0.1 to 10 uM by real-time PCR analysis; format: functional, cell-based
CD4-positive T cell [7] = experiment: Inhibition of C57BL/6 mouse CD4-positive T cell differentiation assessed as decrease in T-bet mRNA level 0.1 to 10 uM by real-time PCR analysis; format: functional, cell-based
CD4-positive T cell [8] = experiment: Inhibition of C57BL/6 mouse CD4-positive T cell differentiation assessed as decrease in GATA-3 mRNA level 0.1 to 10 uM by real-time PCR analysis; format: functional, cell-based
CD4-positive T cell [9] = experiment: Inhibition of C57BL/6 mouse CD4-positive T cell differentiation assessed as decrease in FoxP3 mRNA level 0.1 to 10 uM by real-time PCR analysis; format: functional, cell-based
Th17 [10] = experiment: Decrease in IL-17A mRNA level in C57BL/6 mouse Th17 cells 0.1 to 10 uM by real-time PCR analysis; format: functional, cell-based
Treg cell [11] = experiment: Increase in IL-10 mRNA level in C57BL/6 mouse Treg cells by real-time PCR analysis; format: functional, cell-based
Th17 [12] = experiment: Reduction in IL-17A production in C57BL/6 mouse Th17 cells at 10 uM by ELISA; format: functional, cell-based
Th1 = experiment: Reduction in IFN-gamma production in C57BL/6 mouse Th1 cells at 10 uM by ELISA; format: functional, cell-based
Treg cell [13] = experiment: Reduction in IL-10 production in C57BL/6 mouse Treg cells at 10 uM by ELISA; format: functional, cell-based
Treg cell [14] = experiment: Increase in IL-10 production in C57BL/6 mouse Treg cells by ELISA; format: functional, cell-based
[15] = molecular target: T1, Tyrosine-protein kinase JAK1/JAK2 (Mus musculus) (UniProt P52332+Q62120); experiment: Inhibition of JAK1/JAK2 in C57BL/6 mouse CD4-positive T cell assessed as reduction in IFNgamma-induced STAT1 phosphorylation at 1 to 10 uM pretreated for 1 hr followed by IFNgamma addition after 15 mins by Western blot analysis
T1 sequence (P52332 whole entry, looked up): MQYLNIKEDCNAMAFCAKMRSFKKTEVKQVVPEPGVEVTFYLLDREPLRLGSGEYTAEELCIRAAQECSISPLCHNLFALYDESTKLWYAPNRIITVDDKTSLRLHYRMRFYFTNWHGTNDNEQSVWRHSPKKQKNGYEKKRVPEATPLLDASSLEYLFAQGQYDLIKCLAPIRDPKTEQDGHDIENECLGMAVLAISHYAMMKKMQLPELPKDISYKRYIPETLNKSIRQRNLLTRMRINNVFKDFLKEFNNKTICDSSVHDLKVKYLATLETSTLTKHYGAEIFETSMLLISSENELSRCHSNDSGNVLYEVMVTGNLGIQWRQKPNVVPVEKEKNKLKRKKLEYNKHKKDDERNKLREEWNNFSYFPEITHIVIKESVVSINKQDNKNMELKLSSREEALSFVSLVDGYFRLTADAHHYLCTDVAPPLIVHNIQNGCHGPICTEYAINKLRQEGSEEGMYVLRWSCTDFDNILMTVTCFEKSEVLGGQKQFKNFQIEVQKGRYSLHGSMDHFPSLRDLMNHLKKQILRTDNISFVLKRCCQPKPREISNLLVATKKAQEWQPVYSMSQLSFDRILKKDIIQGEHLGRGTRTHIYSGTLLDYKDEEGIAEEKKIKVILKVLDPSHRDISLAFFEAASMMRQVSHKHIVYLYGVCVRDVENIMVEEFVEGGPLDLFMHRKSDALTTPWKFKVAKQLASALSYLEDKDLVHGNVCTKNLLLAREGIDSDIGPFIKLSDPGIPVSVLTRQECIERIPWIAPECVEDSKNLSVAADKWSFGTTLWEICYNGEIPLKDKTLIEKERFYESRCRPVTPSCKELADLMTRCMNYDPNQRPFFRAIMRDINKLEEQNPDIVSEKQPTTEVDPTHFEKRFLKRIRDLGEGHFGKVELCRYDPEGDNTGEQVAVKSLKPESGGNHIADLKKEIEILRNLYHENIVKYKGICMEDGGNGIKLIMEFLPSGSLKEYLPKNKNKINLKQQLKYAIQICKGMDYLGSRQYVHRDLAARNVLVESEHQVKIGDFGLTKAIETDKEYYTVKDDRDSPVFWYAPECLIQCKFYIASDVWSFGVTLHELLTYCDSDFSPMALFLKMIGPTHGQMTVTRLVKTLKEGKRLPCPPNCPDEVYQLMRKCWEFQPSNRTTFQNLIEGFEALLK
T1 sequence (Q62120 whole entry, looked up): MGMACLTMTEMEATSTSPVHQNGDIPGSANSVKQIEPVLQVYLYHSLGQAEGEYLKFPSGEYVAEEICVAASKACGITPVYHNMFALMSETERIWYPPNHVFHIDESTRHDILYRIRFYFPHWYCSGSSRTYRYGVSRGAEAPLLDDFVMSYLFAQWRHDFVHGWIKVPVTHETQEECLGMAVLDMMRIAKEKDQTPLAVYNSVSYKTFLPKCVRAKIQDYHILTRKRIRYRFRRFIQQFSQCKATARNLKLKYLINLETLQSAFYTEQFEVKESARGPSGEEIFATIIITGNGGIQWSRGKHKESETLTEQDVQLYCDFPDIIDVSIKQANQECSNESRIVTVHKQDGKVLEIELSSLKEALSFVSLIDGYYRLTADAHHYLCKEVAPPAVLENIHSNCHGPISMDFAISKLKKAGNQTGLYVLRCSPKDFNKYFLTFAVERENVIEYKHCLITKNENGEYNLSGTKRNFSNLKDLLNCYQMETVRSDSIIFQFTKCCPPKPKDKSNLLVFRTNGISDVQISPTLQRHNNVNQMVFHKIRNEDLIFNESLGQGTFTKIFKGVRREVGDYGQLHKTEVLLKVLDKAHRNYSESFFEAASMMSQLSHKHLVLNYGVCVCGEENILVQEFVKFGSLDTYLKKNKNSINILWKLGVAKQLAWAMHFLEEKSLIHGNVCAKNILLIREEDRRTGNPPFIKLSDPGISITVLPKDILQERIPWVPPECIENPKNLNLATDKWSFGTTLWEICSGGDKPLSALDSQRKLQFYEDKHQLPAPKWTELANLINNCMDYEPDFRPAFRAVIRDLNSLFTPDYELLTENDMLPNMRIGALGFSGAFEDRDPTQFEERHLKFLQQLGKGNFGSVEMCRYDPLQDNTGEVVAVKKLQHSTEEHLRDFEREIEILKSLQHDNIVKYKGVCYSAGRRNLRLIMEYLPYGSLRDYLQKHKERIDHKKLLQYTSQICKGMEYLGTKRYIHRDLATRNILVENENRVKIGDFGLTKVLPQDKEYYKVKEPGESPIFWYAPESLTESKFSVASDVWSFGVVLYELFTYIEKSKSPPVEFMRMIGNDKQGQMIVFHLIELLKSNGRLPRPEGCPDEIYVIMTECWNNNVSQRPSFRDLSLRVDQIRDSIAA

[16] = molecular target: T1, Tyrosine-protein kinase JAK1/JAK2 (Mus musculus); experiment: Inhibition of JAK1/JAK2 in C57BL/6 mouse CD4-positive T cell assessed as reduction in IFNgamma-induced STAT3 phosphorylation at 1 to 10 uM pretreated for 1 hr followed by IFNgamma addition after 15 mins by Western blot analysis
Mus musculus [17] = species on record: Mus musculus; experiment: Inhibition of […]/TYK2 in C57BL/6 mouse CD4-positive T cell assessed as reduction in IL-12-induced STAT1 phosphorylation at 1 to 10 uM pretreated for 1 hr followed by IL-12 addition after 30 mins by Western blot analysis
Mus musculus [18] = species on record: Mus musculus; experiment: Inhibition of […]/TYK2 in C57BL/6 mouse CD4-positive T cell assessed as reduction in IL-12-induced STAT4 phosphorylation at 1 to 10 uM pretreated for 1 hr followed by IL-12 addition after 30 mins by Western blot analysis
[19] = molecular target: Tyrosine-protein kinase JAK1/JAK3 (Mus musculus) (UniProt P52332+Q62137); experiment: Inhibition of JAK1/JAK3 in C57BL/6 mouse CD4-positive T cell assessed as reduction in IL-4-induced STAT6 phosphorylation at 1 to 10 uM pretreated for 1 hr followed by IL-4 addition after 15 mins by Western blot analysis
Sequence of Tyrosine-protein kinase JAK1/JAK3 (Mus musculus) (P52332 whole entry, looked up): as the sequence (P52332 whole entry, looked up) above
Sequence of Tyrosine-protein kinase JAK1/JAK3 (Mus musculus) (Q62137 whole entry, looked up): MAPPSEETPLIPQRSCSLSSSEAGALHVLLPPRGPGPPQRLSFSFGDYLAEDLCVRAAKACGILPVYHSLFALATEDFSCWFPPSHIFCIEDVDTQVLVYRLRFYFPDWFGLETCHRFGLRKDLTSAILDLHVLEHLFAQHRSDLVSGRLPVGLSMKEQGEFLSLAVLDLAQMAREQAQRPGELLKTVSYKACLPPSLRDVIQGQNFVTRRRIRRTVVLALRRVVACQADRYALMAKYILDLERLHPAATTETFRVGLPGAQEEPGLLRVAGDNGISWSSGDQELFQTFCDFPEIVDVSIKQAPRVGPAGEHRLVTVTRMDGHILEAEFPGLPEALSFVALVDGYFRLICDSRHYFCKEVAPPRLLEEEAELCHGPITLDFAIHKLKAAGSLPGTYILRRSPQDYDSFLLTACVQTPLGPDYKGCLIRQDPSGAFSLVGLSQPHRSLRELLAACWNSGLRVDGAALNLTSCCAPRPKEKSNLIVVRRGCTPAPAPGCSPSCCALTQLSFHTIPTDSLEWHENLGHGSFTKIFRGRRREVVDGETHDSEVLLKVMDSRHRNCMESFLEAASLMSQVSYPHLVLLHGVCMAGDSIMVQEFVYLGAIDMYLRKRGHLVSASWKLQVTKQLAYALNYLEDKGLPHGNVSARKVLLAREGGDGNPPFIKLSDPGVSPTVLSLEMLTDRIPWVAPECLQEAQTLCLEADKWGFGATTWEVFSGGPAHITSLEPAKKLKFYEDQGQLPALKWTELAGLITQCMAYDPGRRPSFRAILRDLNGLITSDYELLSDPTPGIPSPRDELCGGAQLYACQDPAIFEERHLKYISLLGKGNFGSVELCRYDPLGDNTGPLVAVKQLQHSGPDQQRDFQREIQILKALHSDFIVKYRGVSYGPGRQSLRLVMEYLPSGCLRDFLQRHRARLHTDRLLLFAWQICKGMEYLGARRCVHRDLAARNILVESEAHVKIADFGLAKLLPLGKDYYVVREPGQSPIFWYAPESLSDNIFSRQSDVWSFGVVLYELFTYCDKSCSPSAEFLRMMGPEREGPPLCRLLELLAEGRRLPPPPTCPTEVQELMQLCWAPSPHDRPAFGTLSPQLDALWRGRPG

Mus musculus [20] = experiment: (§1) Anti-inflammatory activity in IL-23 induced mouse psoriasis-like skin inflammation model assessed as reduction in epidermal hyperplasia by measuring acanthosis at 2 to 10 uM applied topically starting 1 day prior to IL-23 induction and continuing every other day for 14 days measured after 24 hrs post last dose by hematoxylin and eosin staining based assay; format: functional
Mus musculus [21] = experiment: as §1, with “dermal inflammatory infiltrates” for “epidermal hyperplasia by measuring acanthosis”; format: functional
Mus musculus [22] = experiment: as §1, with “IFN-gamma mRNA levels” for “epidermal hyperplasia by measuring acanthosis”, “real-time PCR analysis” for “hematoxylin and eosin staining based assay”; format: functional
Mus musculus [23] = experiment: as §1, with “IL-17A mRNA levels” for “epidermal hyperplasia by measuring acanthosis”, “real-time PCR analysis” for “hematoxylin and eosin staining based assay”; format: functional
Mus musculus [24] = experiment: as §1, with “IL-22 mRNA levels” for “epidermal hyperplasia by measuring acanthosis”, “real-time PCR analysis” for “hematoxylin and eosin staining based assay”; format: functional
Mus musculus [25] = experiment: as §1, with “IL-4 mRNA levels” for “epidermal hyperplasia by measuring acanthosis”, “real-time PCR analysis” for “hematoxylin and eosin staining based assay”; format: functional
Mus musculus [26] = experiment: as §1, with “CXCL1 mRNA levels” for “epidermal hyperplasia by measuring acanthosis”, “real-time PCR analysis” for “hematoxylin and eosin staining based assay”; format: functional
Mus musculus [27] = experiment: as §1, with “CCL17 mRNA levels” for “epidermal hyperplasia by measuring acanthosis”, “real-time PCR analysis” for “hematoxylin and eosin staining based assay”; format: functional
Mus musculus [28] = experiment: as §1, with “CCL20 mRNA levels” for “epidermal hyperplasia by measuring acanthosis”, “real-time PCR analysis” for “hematoxylin and eosin staining based assay”; format: functional
Mus musculus [29] = experiment: as §1, with “CCL27 mRNA levels” for “epidermal hyperplasia by measuring acanthosis”, “real-time PCR analysis” for “hematoxylin and eosin staining based assay”; format: functional
Mus musculus [30] = experiment: as §1, with “CCR6 mRNA levels” for “epidermal hyperplasia by measuring acanthosis”, “real-time PCR analysis” for “hematoxylin and eosin staining based assay”; format: functional
Mus musculus [31] = experiment: as §1, with “IL-1alpha mRNA levels” for “epidermal hyperplasia by measuring acanthosis”, “real-time PCR analysis” for “hematoxylin and eosin staining based assay”; format: functional
Mus musculus [32] = experiment: as §1, with “IL-1beta mRNA levels” for “epidermal hyperplasia by measuring acanthosis”, “real-time PCR analysis” for “hematoxylin and eosin staining based assay”; format: functional
Mus musculus [33] = experiment: as §1, with “IL-6 mRNA levels” for “epidermal hyperplasia by measuring acanthosis”, “real-time PCR analysis” for “hematoxylin and eosin staining based assay”; format: functional
Mus musculus [34] = experiment: as §1, with “TNF-alpha mRNA levels” for “epidermal hyperplasia by measuring acanthosis”, “real-time PCR analysis” for “hematoxylin and eosin staining based assay”; format: functional
Mus musculus [35] = experiment: as §1, with “COX2 mRNA levels” for “epidermal hyperplasia by measuring acanthosis”, “real-time PCR analysis” for “hematoxylin and eosin staining based assay”; format: functional
Mus musculus [36] = experiment: as §1, with “IL-10 mRNA levels” for “epidermal hyperplasia by measuring acanthosis”, “real-time PCR analysis” for “hematoxylin and eosin staining based assay”; format: functional
CD4-positive T cell [37] = experiment: Reduction in RORgammat/IL-17 expression in human PBMC derived allogeneic CD4-positive T cells co-cultured with […] CD14 positive monocyte derived dendritic cells at 10 uM by flow cytometric analysis; format: functional, cell-based
CD4-positive T cell [38] = experiment: Reduction in FoxP3/IL-10 expression in human PBMC derived allogeneic CD4-positive T cells co-cultured with […] CD14 positive monocyte derived dendritic cells at 10 uM by flow cytometric analysis; format: functional, cell-based
CD4-positive T cell [39] = experiment: Reduction in ratio of RORgammat/IL-17 expression to FoxP3/IL-10 expression in human PBMC derived allogeneic CD4-positive T cells co-cultured with […] CD14 positive monocyte derived dendritic cells at 10 uM by flow cytometric analysis; format: functional, cell-based

CC(=O)O[C@@H]1C[C@@]23C[C@@]24CC[C@H](O[C@@H]2O[C@H](CO)[C@H](O)[C@H](O)[C@H]2O)C(C)(C)[C@@H]4CC[C@H]3[C@]2(C)C[C@]3(O)O[C@H](C(=O)[C@@H]4OC4(C)C)[C@@H](C)[C@@H]3[C@@]12C
CC50 (Splenocyte): 88.8 µM | inhibition at 50 µM [1]: 98.3% | inhibition at 25 µM [2]: 93.6% | inhibition at 12.5 µM [3]: 59.6% | inhibition at 6.25 µM [4]: 29.6% | pIC50 [5]: 5.06 | inhibition (CD4-positive T cell [6]): Active | inhibition (CD4-positive T cell [7]): Active | inhibition (CD4-positive T cell [8]): Active | inhibition (CD4-positive T cell [9]): inactive | Activity (Th17 [10]): Active | Activity (Treg cell [11]): Dose-dependent effect | Activity (Th17 [12]): Active | Activity (Th1): Active | Activity (Treg cell [13]): Active | Activity (Treg cell [14]): Dose-dependent effect | inhibition [15]: Active | inhibition [16]: Active | inhibition (Mus musculus [17]): Active | inhibition (Mus musculus [18]): Active | inhibition [19]: Active | Activity (Mus musculus [20]): Active | Activity (Mus musculus [21]): Active | Activity (Mus musculus [22]): Active | Activity (Mus musculus [23]): Active | Activity (Mus musculus [24]): Active | Activity (Mus musculus [25]): Active | Activity (Mus musculus [26]): Active | Activity (Mus musculus [27]): Active | Activity (Mus musculus [28]): Active | Activity (Mus musculus [29]): Active | Activity (Mus musculus [30]): Active | Activity (Mus musculus [31]): Active | Activity (Mus musculus [32]): Active | Activity (Mus musculus [33]): Active | Activity (Mus musculus [34]): Active | Activity (Mus musculus [35]): Active | Activity (Mus musculus [36]): inactive | Activity (CD4-positive T cell [37]): Active | Activity (CD4-positive T cell [38]): Active | Activity (CD4-positive T cell [39]): Active

CC(=O)O[C@@H]1C[C@@]23C[C@@]24CC[C@H](O[C@@H]2OC[C@@H](O)[C@H](O)[C@H]2O)C(C)(C)[C@@H]4CC=C3[C@]2(C)C[C@]3(O)O[C@H](C(=O)[C@@H]4OC4(C)C)[C@@H](C)[C@@H]3[C@@]12C
inhibition at 50 µM [1]: 99.1% | inhibition at 25 µM [2]: 82.6% | inhibition at 12.5 µM [3]: 24.6% | inhibition at 6.25 µM [4]: 5.3% | pIC50 [5]: 4.75

CC(=O)O[C@H]([C@H]1C[C@@H](C)C2=C(O1)[C@@H](O)[C@@]1(C)[C@@H]3CC[C@H]4C(C)(C)[C@@H](O[C@@H]5O[C@H](CO)[C@H](O)[C@H](O)[C@H]5O)CC[C@@]45C[C@@]35CC[C@]21C)C(C)(C)O
inhibition at 50 µM [1]: 96.8% | inhibition at 25 µM [2]: 68.3% | inhibition at 12.5 µM [3]: 21.3% | inhibition at 6.25 µM [4]: 10.2% | pIC50 [5]: 4.84
